Reference: US20110250266A1, “LIPOSOMAL SYSTEMS COMPRISING SPHINGOMYELIN” (Yissum Research Development Company of the Hebrew …, priority 2008, published 2011)
Where “and” joins values, the source holds several entries; their conditions need not be identical. Identical values can stand only once. Counter-ions that a name gives are not always drawn.

What was measured:
[1] = tested on: Mice (male Swiss-Webster); assay: Analgesic efficacy in mouse model (electrical stimulation of abdominal skin, vocalization threshold); assay type: in vivo; design: key: 1 = analgesia; 0 = no analgesia; 10 = partial analgesia
Experimental: Testing for analgesia was done by electrical stimulation of the skin directly overlying the abdomen at the site of injection using a current generator (model S48, Grass Instruments).
Mice (male Swiss-Webster, 26±3 gr) were tested prior to injection to determine the vocalization threshold than were injected with encapsulation BUP liposomes than determine analgesic duration (G. J. Grant et al, pharmaceutical research, vol 18, no. 3, 336-343, 2001).
In order to evaluate the effect of altering the volume and BUP concentration of the injection, in each group, three mice received 150 μL of the 2% formulation and 3 mice received 300 μL of a 1:1 diluted 2% formulation.
In these Tables, an numeric score of “1” denotes full analgesia, a numeric score of “0” was given when there was no analgesic effect, and a numeric value of “10” when there was partial analgesia.
As indicated above, the numerical score to the spreadsheet was introduced for the evaluation of the analgesic effect of various liposome preparations performance in vivo: For each time period (e.g. 4 hrs, 8 hrs etc) a numeric value of 1 was given if the anesthesia was complete; 10 or 0.5 was given when analgesia was partial (incomplete) and 0 for no anesthesia. The mean for each subgroup was calculated separately (i.e. 1% 300 μl, 2% 150 μg).

[2] = tested on: mouse; assay: Maximal tolerated dose of free BUP; assay type: in vivo
[3] = individual mice, Bup conc 0.25%, volume 150 ul, 0.375 mg Bup
[4] = individual mice, Bup conc 0.25%, volume 150 ul, 0.375 mg Bup, hydrochloride
[5] = individual mice, Bup conc 0.25%, volume 300 ul, 0.75 mg Bup
[6] = individual mice, Bup conc 0.25%, volume 300 ul, 0.75 mg Bup, hydrochloride
[7] = individual mice, Bup conc 0.50%, volume 150 ul, 0.75 mg Bup
[8] = individual mice, Bup conc 0.50%, volume 150 ul, 0.75 mg Bup, hydrochloride
[9] = mice, 0.25%, 150 ul, 0.375 mg Bup
[10] = mice, 0.25%, 150 ul, 0.375 mg Bup, hydrochloride
[11] = mice, 0.25%, 300 ul, 0.75 mg Bup
[12] = mice, 0.25%, 300 ul, 0.75 mg Bup, hydrochloride
[13] = mice, 0.50%, 150 ul, 0.75 mg Bup
[14] = mice, 0.50%, 150 ul, 0.75 mg Bup, hydrochloride

SMILES: CCCCN1CCCCC1C(=O)Nc1c(C)cccc1C (stereo not drawn) [Standard Bupivacaine, Bupivacaine hydrochloride]
- Analgesic effect score at 15 min [1, 3]: 1
- Analgesic effect score at 30 min [1, 3]: 1
- Analgesic effect score at 45 min [1, 3]: 1
- Analgesic effect score at 60 min [1, 4]: 0 (5×) and 1 (2×) and 10
- Analgesic effect score at 75 min [1, 4]: 0 (7×) and 10
- Analgesic effect score at 90 min [1, 3]: 0
- Analgesic effect score at 15 min [1, 5]: 1
- Analgesic effect score at 30 min [1, 5]: 1
- Analgesic effect score at 45 min [1, 5]: 1
- Analgesic effect score at 60 min [1, 5]: 1
- Analgesic effect score at 75 min [1, 6]: 0 and 1 (7×)
- Analgesic effect score at 90 min [1, 6]: 0 and 1 (5×) and 10 (2×)
- Analgesic effect score at 105 min [1, 6]: 0 (5×) and 10 and 1 (2×)
- Analgesic effect score at 120 min ([1]; individual mice, Bup conc 0.25%, volume 300 ul, 0.75 mg Bup, 120 min, hydrochloride): 0 (7×) and 10
- Analgesic effect score at 135 min ([1]; individual mice, Bup conc 0.25%, volume 300 ul, 0.75 mg Bup, 135 min): 0
- Analgesic effect score at 15 min [1, 7]: 1
- Analgesic effect score at 30 min [1, 7]: 1
- Analgesic effect score at 45 min [1, 7]: 1
- Analgesic effect score at 60 min [1, 8]: 1 (7×) and 10
- Analgesic effect score at 75 min [1, 8]: 1 (6×) and 0 and 10
- Analgesic effect score at 90 min [1, 8]: 0 (4×) and 10 (2×) and 1 (2×)
- Analgesic effect score at 105 min [1, 7]: 0
- analgesia 15 min [1, 9]: 1
- analgesia 30 min [1, 9]: 1
- analgesia 45 min [1, 9]: 1
- analgesia 60 min [1, 10]: 0 and 1 and 10
- analgesia 75 min [1, 10]: 0 and 10
- analgesia 90 min [1, 9]: 0
- analgesia 15 min [1, 11]: 1
- analgesia 30 min [1, 11]: 1
- analgesia 45 min [1, 11]: 1
- analgesia 60 min [1, 11]: 1
- analgesia 75 min [1, 12]: 0 and 1
- analgesia 90 min [1, 12]: 0 and 1 and 10
- analgesia 105 min [1, 12]: 0 and 10 and 1
- analgesia 120 min ([1]; mice, 0.25%, 300 ul, 0.75 mg Bup, 120 min, hydrochloride): 0 and 10
- analgesia 135 min ([1]; mice, 0.25%, 300 ul, 0.75 mg Bup, 135 min): 0
- analgesia 15 min [1, 13]: 1
- analgesia 30 min [1, 13]: 1
- analgesia 45 min [1, 13]: 1
- analgesia 60 min [1, 14]: 1 and 10
- analgesia 75 min [1, 14]: 1 and 0 and 10
- analgesia 90 min [1, 14]: 0 and 10 and 1
- analgesia 105 min [1, 13]: 0
- maximal tolerated dose, MTD [2]: 0.75 mg/mouse
